pIC50: −log10 of the molar value.

The target in the assay is T1, DPP-IV (dipeptidyl peptidase-IV) (Homo sapiens, UniProt P27487).
T1 construct: gene DPP4; commercial recombinant human DPP-IV
The assay can be described thus: fluorimetric DPP-IV inhibition assay (H-Gly-Pro-AMC), dose-response. The class given is biochemical.

T1 sequence (P27487 39-766): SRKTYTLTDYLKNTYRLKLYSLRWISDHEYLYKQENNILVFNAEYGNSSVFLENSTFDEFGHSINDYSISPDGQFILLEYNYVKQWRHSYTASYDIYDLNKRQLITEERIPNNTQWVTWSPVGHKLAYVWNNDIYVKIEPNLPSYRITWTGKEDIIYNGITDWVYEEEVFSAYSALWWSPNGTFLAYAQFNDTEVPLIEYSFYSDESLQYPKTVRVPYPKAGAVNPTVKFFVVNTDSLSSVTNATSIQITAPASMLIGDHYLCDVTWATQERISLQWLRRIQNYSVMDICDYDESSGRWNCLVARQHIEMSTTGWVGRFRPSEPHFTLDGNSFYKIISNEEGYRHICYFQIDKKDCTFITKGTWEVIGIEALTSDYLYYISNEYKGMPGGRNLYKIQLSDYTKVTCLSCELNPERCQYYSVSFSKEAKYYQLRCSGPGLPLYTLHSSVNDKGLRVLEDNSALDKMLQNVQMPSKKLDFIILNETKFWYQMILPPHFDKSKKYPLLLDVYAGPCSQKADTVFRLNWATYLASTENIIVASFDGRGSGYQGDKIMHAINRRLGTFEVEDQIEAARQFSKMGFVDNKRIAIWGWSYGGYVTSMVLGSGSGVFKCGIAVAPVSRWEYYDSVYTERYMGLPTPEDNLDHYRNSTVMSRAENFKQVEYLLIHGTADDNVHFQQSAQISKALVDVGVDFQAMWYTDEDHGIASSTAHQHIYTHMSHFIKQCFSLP

A word on the pIC50: it is the IC50 on a negative log10 scale, so that one unit is a factor of ten. `CCCCN(C)Cc1c(O)ccc2c(-c3cc4ccccc4oc3=O)cc(=O)oc12` [C5, ZINC02132035] showed a pIC50 of 4.21.

These data come from article PMC3440348, “Identification of Novel Human Dipeptidyl Peptidase-IV Inhibitors of Natural Origin (Part I): Virtual Screening and Activity Assays” (PLoS ONE, 2012).
